In the CheMixHub viscosity set:

Test: xn = mol fraction of the nth substance listed

C1CCOC1 + CCO
Settings	viscosity [mPa·s]
298.15 K, 101 kPa, x1 = 0.4	0.6728

CC(C)=O + CCO
298.15 K, 101 kPa
Settings	viscosity [mPa·s]
x1 = 0.1868	0.7168
x1 = 0.2337	0.651
x1 = 0.3003	0.5795
x1 = 0.3162	0.5636
x1 = 0.378	0.5162
x1 = 0.3887	0.5028
x1 = 0.4579	0.462
x1 = 0.6529	0.3836

CC1COC(=O)O1 (stereo unspecified) + CCO
298 K, 101.3 kPa
Settings	viscosity [mPa·s]
x1 = 0.021	1.1
x1 = 0.0404	1.116
x1 = 0.06	1.131
x1 = 0.0806	1.147
x1 = 0.0987	1.161
x1 = 0.2008	1.237
x1 = 0.3003	1.312
x1 = 0.4003	1.397
x1 = 0.5002	1.497
x1 = 0.6002	1.619
x1 = 0.7001	1.768
x1 = 0.8	1.947
x1 = 0.9005	2.165

COc1ccccc1 + CCO
298.15 K, 101 kPa
Settings	viscosity [mPa·s]
x1 = 0.07099	1.045
x1 = 0.152	0.989
x1 = 0.2432	0.947
x1 = 0.3485	0.918
x1 = 0.4715	0.904
x1 = 0.6165	0.905
x1 = 0.7928	0.924

Cc1ccccc1 + CCO
Settings	viscosity [mPa·s]
293.2 K, 101.32 kPa, x2 = 0.05	0.568
293.2 K, 101.32 kPa, x2 = 0.136	0.587
293.2 K, 101.32 kPa, x2 = 0.28	0.616
293.2 K, 101.32 kPa, x2 = 0.55	0.731
293.2 K, 101.32 kPa, x2 = 0.735	0.861
303 K, 101 kPa, x1 = 0.1006	0.821
303 K, 101 kPa, x1 = 0.2012	0.786
303 K, 101 kPa, x1 = 0.3009	0.724
303 K, 101 kPa, x1 = 0.3981	0.686
303 K, 101 kPa, x1 = 0.5016	0.643
303 K, 101 kPa, x1 = 0.6052	0.613
303 K, 101 kPa, x1 = 0.7001	0.602
303 K, 101 kPa, x1 = 0.8095	0.569
303 K, 101 kPa, x1 = 0.9011	0.551
303 K, 101.33 kPa, x2 = 0.3333	0.574
303 K, 101.33 kPa, x2 = 0.5714	0.651
303 K, 101.33 kPa, x2 = 0.75	0.774
303 K, 101.33 kPa, x2 = 0.8889	0.927
303.15 K, 101.33 kPa, x1 = 0.0692	0.893
303.15 K, 101.33 kPa, x1 = 0.1849	0.803
303.15 K, 101.33 kPa, x1 = 0.3191	0.699
303.15 K, 101.33 kPa, x1 = 0.5285	0.596
303.15 K, 101.33 kPa, x1 = 0.5858	0.575
303.15 K, 101.33 kPa, x1 = 0.6901	0.546
303.15 K, 101.33 kPa, x1 = 0.7906	0.527
303.15 K, 101.33 kPa, x1 = 0.8565	0.519
303.15 K, 101.33 kPa, x1 = 0.9213	0.524
308.15 K, 101.33 kPa, x1 = 0.0692	0.814
308.15 K, 101.33 kPa, x1 = 0.1849	0.736
308.15 K, 101.33 kPa, x1 = 0.3191	0.642
308.15 K, 101.33 kPa, x1 = 0.5285	0.552
308.15 K, 101.33 kPa, x1 = 0.5858	0.533
308.15 K, 101.33 kPa, x1 = 0.6901	0.507
308.15 K, 101.33 kPa, x1 = 0.7906	0.491
308.15 K, 101.33 kPa, x1 = 0.8565	0.486
308.15 K, 101.33 kPa, x1 = 0.9213	0.493
313 K, 101.33 kPa, x2 = 0.3333	0.504
313 K, 101.33 kPa, x2 = 0.5714	0.557
313 K, 101.33 kPa, x2 = 0.75	0.654
313 K, 101.33 kPa, x2 = 0.8889	0.778
323 K, 101.33 kPa, x2 = 0.3333	0.446
323 K, 101.33 kPa, x2 = 0.5714	0.479
323 K, 101.33 kPa, x2 = 0.75	0.557
323 K, 101.33 kPa, x2 = 0.8889	0.648

COc1ccccc1 + CCOC(=O)OCC
viscosity [mPa·s], 100 kPa
Settings	x2 = 0.1064	x2 = 0.203	x2 = 0.3032	x2 = 0.3994	x2 = 0.499	x2 = 0.6007	x2 = 0.7032	x2 = 0.7988	x2 = 0.8975
303.15 K	0.894	0.867	0.84	0.817	0.793	0.771	0.75	0.731	0.714
308.15 K	0.824	0.801	0.778	0.759	0.738	0.719	0.702	0.687	0.673
313.15 K	0.767	0.748	0.729	0.711	0.694	0.677	0.662	0.649	0.636

C1CCOC1 + CCOC(C)=O
101.32 kPa
Settings	viscosity [mPa·s]
303.15 K, x2 = 0.0431	0.443
303.15 K, x2 = 0.0837	0.437
303.15 K, x2 = 0.128	0.434
303.15 K, x2 = 0.1718	0.431
303.15 K, x2 = 0.2625	0.425
303.15 K, x2 = 0.3504	0.421
303.15 K, x2 = 0.4521	0.416
303.15 K, x2 = 0.6544	0.41
303.15 K, x2 = 0.8229	0.407
303.15 K, x2 = 0.8817	0.407
303.15 K, x2 = 0.9396	0.406
313.15 K, x2 = 0.2044	0.384
313.15 K, x2 = 0.4059	0.375
313.15 K, x2 = 0.5072	0.373
313.15 K, x2 = 0.6002	0.37
313.15 K, x2 = 0.7996	0.369

CC(C)=O + CCOC(C)=O
viscosity [mPa·s], 101 kPa
Settings	x2 = 0.0999	x2 = 0.2009	x2 = 0.3284	x2 = 0.4015	x2 = 0.4977	x2 = 0.5969	x2 = 0.6915	x2 = 0.7908	x2 = 0.9076
293.15 K	0.3328	0.3471	0.3615	0.3751	0.3871	0.4003	0.4129	0.4274	0.4419
298.15 K	0.317	0.3305	0.3438	0.3563	0.3674	0.3795	0.3913	0.4035	0.4179
303.15 K	0.3022	0.3151	0.3274	0.3375	0.3502	0.3603	0.3716	0.3825	0.3961
313.15 K	0.2757	0.2877	0.2982	0.3065	0.3182	0.3262	0.3364	0.3455	0.3573

CCCCn1cc[n+](C)c1.O=S(=O)([O-])C(F)(F)F + CCOC(C)=O
100 kPa
Settings	viscosity [mPa·s]
298.15 K, x1 = 0.8932	54.68
303.15 K, x1 = 0.3056	8.97
308.15 K, x1 = 0.3056	7.31
313.15 K, x1 = 0.3056	6.63
313.15 K, x1 = 0.3978	9.79
318.15 K, x1 = 0.3056	5.79
323.15 K, x1 = 0.3056	4.97
323.15 K, x1 = 0.3978	7.21
323.15 K, x1 = 0.5067	9.88

C1CCOC1 + CN(C)C=O
viscosity [mPa·s], 101 kPa
Settings	x2 = 0.0988	x2 = 0.1978	x2 = 0.2971	x2 = 0.3967	x2 = 0.4966	x2 = 0.5967	x2 = 0.6971	x2 = 0.7978	x2 = 0.8988
298.15 K	0.47	0.482	0.496	0.518	0.547	0.586	0.63	0.679	0.737
308.15 K	0.434	0.444	0.458	0.476	0.502	0.533	0.57	0.614	0.659
318.15 K	0.41	0.431	0.454	0.478	0.502	0.523	0.545	0.568	0.592

CC(C)=O + CN(C)C=O
298.15 K, 101 kPa
Settings	viscosity [mPa·s]
x2 = 0.0367	0.32
x2 = 0.09776	0.343
x2 = 0.136	0.369
x2 = 0.2182	0.378
x2 = 0.394	0.457
x2 = 0.4912	0.499
x2 = 0.6429	0.565
x2 = 0.8008	0.646
